Source: article PMC7236921, “γ-Secretase modulators exhibit selectivity for modulation of APP cleavage but inverse γ-secretase modulators do not” (Alzheimer's Research & Therapy, 2020)

Legend:
[1] = target: T1, PS2 γ-secretase (PS2 membrane, PSEN1−/− PSEN2+/+) (Homo sapiens, UniProt P49810); test: cell-free cleavage of rC100sub, IP-MS of Abeta; assay type: biochemical; details: inverse modulator (iGSM), 100 μM; substrate rC100sub (APP C100); pH 6.5, 37 °C, 2 h
T1 construct: endogenous complex in CHAPSO-solubilized membrane of HEK 293T cells expressing only PS2; with Nicastrin; Gamma-secretase subunit APH-1A; Gamma-secretase subunit PEN-2

[2] = target: T2, PS1 γ-secretase (PS1 membrane, PSEN1+/+ PSEN2−/−) (Homo sapiens, UniProt P49768); test: cell-free cleavage of rC100sub, IP-MS of Abeta; assay type: biochemical; details: inverse modulator (iGSM), 100 μM; substrate rC100sub (APP C100); pH 6.5, 37 °C, 2 h
T2 construct: endogenous complex in CHAPSO-solubilized membrane of HEK 293T cells expressing only PS1; with Nicastrin; Gamma-secretase subunit APH-1A; Gamma-secretase subunit PEN-2

For CC(C)OC(=O)C(C)(C)Oc1ccc(C(=O)c2ccc(Cl)cc2)cc1 [fenofibrate], the “percentage change of Aβ38” value [1] was “iGSMs had an enhanced response when compared to WT” and the “percentage change of Aβ38” value [2] was “the iGSM treatment resulted in only slight changes in the peptides produced”.
